Experimental data taken from patent US7056940B2, “Insecticidal 3-(2,6-disubstituted phenyl)-5-[5-arylthien-2-yl]-1,2,4-triazoles” (Dow AgroSciences LLC, priority 2001, dated 2006).

These compounds were tested on Sweetpotato Whitefly (Bemisia tabacia) (assay: Insecticidal test for sweetpotato whitefly, spray on cotton plants). Conditions: 200 ppm spray, 13 days, large nymphs.
Format: in vivo
Design: key: A: 90–100; B: 80–89; C: 70–79; D: 60–69; E: 50–59; F: less than 50; G: Inactive
Description: Insecticidal Test for Sweetpotato Whitefly (Bemisia tabacia)
Four mg of each test compound was dissolved by adding 4 mL of a 90:10 acetone:ethanol solvent mixture to the vial containing the sample compound. This solution was added to 16 mL of water containing 0.05% Tween 20 surfactant to produce 20 mL of an 200 ppm spray solution.
Five-week-old cotton plants reared in a greenhouse were stripped of all foliage except for the two uppermost true leaves that were greater than 5 cm in diameter. These plants were then placed into a laboratory colony of whiteflies for two days for oviposition by the colony females. All whiteflies were then removed from the test plants with pressurized air. The spray solution was then applied to the test plants with a hand-held syringe fitted with hollow cone nozzle. One mL spray solution was applied to each leaf top and bottom for a total of 4 mL per plant. Four replications of each test compound utilized a total of 16 mL spray solution. Plants were air dried and then placed in a holding chamber (28° C. and 60% RH) for 13 days. Compound efficacy was evaluated by counting, under an illuminated magnifying glass, the number of large nymphs (3rd–4th instar) per leaf.
Percent control based on reduction of large nymphs of a test compound compared to solution-only (no test compound) sprayed plants is reported in Tables 1–4.

Row | SMILES | WF: activity at 200 ppm against whitefly (% control rating)
1 | Cc1sc(-c2cc(C(F)(F)F)ccc2F)cc1-c1nc(-c2c(F)cccc2Cl)nn1C | G
2 | Cc1c(-c2nc(-c3c(F)cccc3Cl)nn2C)csc1-c1ccc(OC(F)(F)C(F)Br)cc1 (stereo not drawn) | A (90–100)
3 | Cc1c(-c2nc(-c3c(F)cccc3F)nn2C)csc1-c1ccc(C(F)(F)F)cc1Cl | G
4 | Cc1c(-c2nc(-c3c(F)cccc3Cl)nn2C)csc1-c1ccc(OC(F)(F)F)cc1F | A (90–100)
5 | Cc1c(-c2nc(-c3c(F)cccc3Cl)nn2C)csc1-c1ccc(OC2CCCCO2)cc1 (stereo not drawn) | F (less than 50)
6 | Cc1c(-c2nc(-c3c(F)cccc3Cl)nn2C)csc1-c1ccc(OC(F)(F)C(F)F)cc1 | A (90–100)
7 | Cc1sc(-c2ccc(OC(F)(F)C(F)C(F)(F)F)cc2)c(C)c1-c1nc(-c2c(F)cccc2Cl)nn1C (stereo not drawn) | G

These compounds were tested on Two-spotted Spider Mite (Tetranychus urticae) (assay: Insecticidal test for two-spotted spider mite, ovicide method). Conditions: cotton leaf discs, 6 days.
Format: in vivo
Design: key: A: 90–100; B: 80–89; C: 70–79; D: 60–69; E: 50–59; F: less than 50; G: Inactive
Description: Insecticidal Test for Two-spotted Spider Mite (Tetranychus urticae)
Ten adult female two-spotted spider mites were placed on eight 2.2 cm leaf discs of cotton leaf, allowed to oviposit over 24 hours, and thereafter removed. […] Discs were placed on an agar substrate and held at 24° C. and 90% RH for 6 days.

Row | SMILES | SM: activity against two-spotted spider mite (% control rating)
8 | Cc1sc(-c2cc(C(F)(F)F)ccc2F)cc1-c1nc(-c2c(F)cccc2Cl)nn1C | G
9 | Cc1c(-c2nc(-c3c(F)cccc3Cl)nn2C)csc1-c1ccc(OC(F)(F)C(F)Br)cc1 (stereo not drawn) | A (90–100)
10 | Cc1c(-c2nc(-c3c(F)cccc3F)nn2C)csc1-c1ccc(C(F)(F)F)cc1Cl | G
11 | Cc1c(-c2nc(-c3c(F)cccc3Cl)nn2C)csc1-c1ccc(OC(F)(F)F)cc1F | F (less than 50)
12 | Cc1c(-c2nc(-c3c(F)cccc3Cl)nn2C)csc1-c1ccc(OC2CCCCO2)cc1 (stereo not drawn) | F (less than 50)
13 | Cc1c(-c2nc(-c3c(F)cccc3Cl)nn2C)csc1-c1ccc(OC(F)(F)C(F)F)cc1 | E (50–59)
14 | Cc1sc(-c2ccc(OC(F)(F)C(F)C(F)(F)F)cc2)c(C)c1-c1nc(-c2c(F)cccc2Cl)nn1C (stereo not drawn) | G

What follows are compounds tested on Beet Armyworm (Spodoptera exigua) (assay: Insecticidal test for beet armyworm, treated lepidopteran diet). Conditions: on diet surface, second-instar larvae, 5 days.
Format: in vivo
Design: key: A: 90–100; B: 80–89; C: 70–79; D: 60–69; E: 50–59; F: less than 50; G: Inactive
From the text: (§1) The compounds are useful for reducing populations of insects and mites and are useful in a method of inhibiting an insect or mite population which comprises applying to a locus of the insect or mite an effective insect- or mite-inactivating amount of a compound of formula (1). The “locus” of insects or mites is a term used herein to refer to the environment in which the insects or mites live or where their eggs are present, including the air surrounding them, the food they eat, or objects which they contact. For example, insects or mites which eat or contact edible or ornamental plants can be controlled by applying the active compound to plant parts such as the seed, seedling, or cutting which is planted, the leaves, stems, fruits, grain, or roots, or to the soil in which the roots are growing. It is contemplated that the compounds might also be useful to protect textiles, paper, stored grain, seeds, domesticated animals, buildings or human beings by applying an active compound to or near such objects. The term “inhibiting an insect or mite” refers to a decrease in the numbers of living insects or mites, or a decrease in the number of viable insect or mite eggs. The extent of reduction accomplished by a compound depends, of course, upon the application rate of the compound, the particular compound used, and the target insect or mite species. At least an inactivating amount should be used. The terms “insect-inactivating amount” and “mite-inactivating amount” are used to describe the amount, which is sufficient to cause a measurable reduction in the treated insect or mite population. Generally an amount in the range from about 1 to about 1000 ppm by weight active compound is used. For example, insects and mites which can be inhibited include, but are not limited to: • Lepidoptera—Heliothis spp., Helicoverpa spp., Spodoptera spp., Mythimna unipuncta, Agrotis ipsilon, Earias spp., Euxoa auxiliaris, Trichoplusia ni, Anticarsia gemmatalis, Rachiplusia nu, Plutella xylostella, Chilo spp., Scirpophaga incertulas, Sesamia inferens, Cnaphalocrocis medinalis, Ostrinia nubilalis, Cydia pomonella, Carposina niponensis, Adoxophyes orana, Archips argyrospilus, Pandemis heparana, Epinotia aporema, Eupoecilia ambiguella, Lobesia botrana, Polychrosis viteana, Pectinophora gossypiella, Pieris rapae, Phyllonorycter spp., Leucoptera malifoliella, Phyllocnisitis citrella • Coleoptera—Diabrotica spp., Leptinotarsa decemlineata, Oulema oryzae, Anthonomus grandis, Lissorhoptrus oryzophilus, Agriotes spp., Melanotus communis, Popillia japonica, Cyclocephala spp., Tribolium spp. • Homoptera—Aphis spp., Myzus persicae, Rhopalosiphum spp., Dysaphis plantaginea, Toxoptera spp., Macrosiphum euphorbiae, Aulacorthum solani, Sitobion avenae, Metopolophium dirhodum, Schizaphis graminum, Brachycolus noxius, Nephotettix spp., Nilaparvata lugens, Sogatella furcifera, Laodelphax striatellus, Bemisia tabaci, Trialeurodes vaporariorum, Aleurodes proletella, Aleurothrixus floccosus, Quadraspidiotus perniciosus, Unaspis yanonensis, Ceroplastes rubens, Aonidiella aurantii • Hemiptera—Lygus spp., Eurygaster maura, Nezara viridula, Piezodorus guildingi, Leptocorisa varicornis • Thysanoptera—Frankliniella occidentalis, Thrips spp., Scirtothrips dorsalis • Isoptera—Reticulitermes flavipes, Coptotermes formosanus • Orthoptera—Blattella germanica, Blatta orientalis, Gryllotalpa spp. • Diptera—Liriomyza spp., Musca domestica, Aedes spp., Culex spp., Anopheles spp. • Hymenoptera—Iridomyrmex humilis, Solenopsis spp., Monomorium pharaonis, Atta spp., Pogonomyrmex spp., Camponotus spp. • Siphonaptera—Ctenophalides spp., Pulex irritans • Acarina—Tetranychus spp., Panonychus spp., Eotetranychus carpini, Phyllocoptruta oleivora, Aculus pelekassi, Brevipalpus phoenicis, Boophilus spp., Dermacentor variabilis, Rhipicephalus sanguineus, Amblyomma americanum, Ixodes spp., Notoedres cati, Sarcoptes scabiei, Dermatophagoides spp. […]

Row | SMILES | BAW: activity at 400 ppm against beet armyworm (% control rating)
15 | Cc1sc(-c2cc(C(F)(F)F)ccc2F)cc1-c1nc(-c2c(F)cccc2Cl)nn1C | G
16 | Cc1c(-c2nc(-c3c(F)cccc3Cl)nn2C)csc1-c1ccc(OC(F)(F)C(F)Br)cc1 (stereo not drawn) | A (90–100)
17 | Cc1c(-c2nc(-c3c(F)cccc3F)nn2C)csc1-c1ccc(C(F)(F)F)cc1Cl | G
18 | Cc1c(-c2nc(-c3c(F)cccc3Cl)nn2C)csc1-c1ccc(OC(F)(F)F)cc1F | A (90–100)
19 | Cc1c(-c2nc(-c3c(F)cccc3Cl)nn2C)csc1-c1ccc(OC2CCCCO2)cc1 (stereo not drawn) | A (90–100)
20 | Cc1c(-c2nc(-c3c(F)cccc3Cl)nn2C)csc1-c1ccc(OC(F)(F)C(F)F)cc1 | A (90–100)
21 | Cc1sc(-c2ccc(OC(F)(F)C(F)C(F)(F)F)cc2)c(C)c1-c1nc(-c2c(F)cccc2Cl)nn1C (stereo not drawn) | A (90–100)

These compounds were tested on Cotton Aphid (Aphis gossypii) (assay: Insecticidal test for cotton aphid, spray on infested squash cotyledons). Conditions: 50 ppm spray, 3 days.
Format: in vivo
Description: Insecticidal Test for Cotton Aphid (Aphis gossypii)
To prepare spray solutions, 1 mg of each test compound was dissolved into 1 mL of a 90:10 acetone:ethanol solvent. This 1 mL of chemical solution was added to 19 mL of water containing 0.05% Tween 20 surfactant to produce a 50 ppm spray solution.
Squash cotyledons were infested with cotton aphid (all life stages) 16–20 hours prior to application of spray solution. The solution was sprayed on both sides of each infested squash cotyledon (0.5 mL×2 each side) with a sweeping action until runoff. The plants were allowed to air dry and held for 3 days in a controlled room at 26° C. and 40% RH after which time the test was graded. Grading was by actual count using a dissecting microscope and comparison of test counts to the untreated check. Results are given in Tables 1–4 as percent control based on population reduction versus the untreated.

Row | SMILES | CA: activity at 50 ppm against cotton aphid (% control rating)
22 | Cc1sc(-c2cc(C(F)(F)F)ccc2F)cc1-c1nc(-c2c(F)cccc2Cl)nn1C | D (60–69)
23 | Cc1c(-c2nc(-c3c(F)cccc3Cl)nn2C)csc1-c1ccc(OC(F)(F)C(F)Br)cc1 (stereo not drawn) | A (90–100)
24 | Cc1c(-c2nc(-c3c(F)cccc3F)nn2C)csc1-c1ccc(C(F)(F)F)cc1Cl | E (50–59)
25 | Cc1c(-c2nc(-c3c(F)cccc3Cl)nn2C)csc1-c1ccc(OC(F)(F)F)cc1F | B (80–89)
26 | Cc1c(-c2nc(-c3c(F)cccc3Cl)nn2C)csc1-c1ccc(OC2CCCCO2)cc1 (stereo not drawn) | B (80–89)
27 | Cc1c(-c2nc(-c3c(F)cccc3Cl)nn2C)csc1-c1ccc(OC(F)(F)C(F)F)cc1 | C (70–79)
28 | Cc1sc(-c2ccc(OC(F)(F)C(F)C(F)(F)F)cc2)c(C)c1-c1nc(-c2c(F)cccc2Cl)nn1C (stereo not drawn) | E (50–59)

The compounds below were run on Cabbage Looper (Trichoplusia ni) (assay: Insecticidal test for cabbage looper, treated cabbage leaf disc). Conditions: cabbage leaf-dip, 2nd instar larvae, 5 days.
Format: in vivo
Design: key: A: 90–100; B: 80–89; C: 70–79; D: 60–69; E: 50–59; F: less than 50; G: Inactive
From the text: as §1

Row | SMILES | CL: activity at 400 ppm against cabbage looper (% control rating)
29 | Cc1sc(-c2cc(C(F)(F)F)ccc2F)cc1-c1nc(-c2c(F)cccc2Cl)nn1C | G
30 | Cc1c(-c2nc(-c3c(F)cccc3Cl)nn2C)csc1-c1ccc(OC(F)(F)C(F)Br)cc1 (stereo not drawn) | A (90–100)
31 | Cc1c(-c2nc(-c3c(F)cccc3F)nn2C)csc1-c1ccc(C(F)(F)F)cc1Cl | A (90–100)
32 | Cc1c(-c2nc(-c3c(F)cccc3Cl)nn2C)csc1-c1ccc(OC(F)(F)F)cc1F | A (90–100)
33 | Cc1c(-c2nc(-c3c(F)cccc3Cl)nn2C)csc1-c1ccc(OC2CCCCO2)cc1 (stereo not drawn) | F (less than 50)
34 | Cc1c(-c2nc(-c3c(F)cccc3Cl)nn2C)csc1-c1ccc(OC(F)(F)C(F)F)cc1 | A (90–100)
35 | Cc1sc(-c2ccc(OC(F)(F)C(F)C(F)(F)F)cc2)c(C)c1-c1nc(-c2c(F)cccc2Cl)nn1C (stereo not drawn) | A (90–100)

What follows are compounds tested on Tobacco Budworm (Heliothis virescens) (assay: Insecticidal test for tobacco budworm, treated cotton cotyledon leaf disc). Conditions: cotton cotyledon leaf-dip, 2nd instar larvae, 5 days.
Format: in vivo
Design: key: A: 90–100; B: 80–89; C: 70–79; D: 60–69; E: 50–59; F: less than 50; G: Inactive
From the text: as §1

Row | SMILES | TBW: activity at 400 ppm against tobacco budworm (% control rating)
36 | Cc1sc(-c2cc(C(F)(F)F)ccc2F)cc1-c1nc(-c2c(F)cccc2Cl)nn1C | F (less than 50)
37 | Cc1c(-c2nc(-c3c(F)cccc3Cl)nn2C)csc1-c1ccc(OC(F)(F)C(F)Br)cc1 (stereo not drawn) | A (90–100)
38 | Cc1c(-c2nc(-c3c(F)cccc3F)nn2C)csc1-c1ccc(C(F)(F)F)cc1Cl | G
39 | Cc1c(-c2nc(-c3c(F)cccc3Cl)nn2C)csc1-c1ccc(OC(F)(F)F)cc1F | A (90–100)
40 | Cc1c(-c2nc(-c3c(F)cccc3Cl)nn2C)csc1-c1ccc(OC2CCCCO2)cc1 (stereo not drawn) | F (less than 50)
41 | Cc1c(-c2nc(-c3c(F)cccc3Cl)nn2C)csc1-c1ccc(OC(F)(F)C(F)F)cc1 | A (90–100)
42 | Cc1sc(-c2ccc(OC(F)(F)C(F)C(F)(F)F)cc2)c(C)c1-c1nc(-c2c(F)cccc2Cl)nn1C (stereo not drawn) | A (90–100)
